# Results published in PMC9925730, “Controlled sequential in situ self-assembly and disassembly of a fluorogenic cisplatin prodrug for cancer theranostics” (Nature Communications, 2023).
# Where “and” joins values, the source holds several entries; their conditions need not be identical. Identical values can stand only once.
# Tested on: ALP
# Experiment: Dephosphorylated efficacy of P-CyPt towards varying concentrations of ALP (NIR fluorescence)
# Format: biochemical
# Settings: for Normalized FL intensity: ALP 0 U/L; for normalized signal over time (section 'Supplementary Fig. 2c'), mean of 3: 250 μM
compound,measurement,setting,value
CC1(C)C(/C=C/C2=C3Oc4cc(OP(=O)(O)O)c(Cl)cc4C=C3CCC2)=[N+](CCCNC(=O)[C@@H](Cc2ccccc2)NC(=O)[C@@H](Cc2ccccc2)NC(=O)CCC(=O)[O][Pt]([NH2])([NH2])([OH])([Cl])[Cl])c2ccccc21 [P-CyPt],Normalized FL intensity,"0 min, mean of 3 samples",1.022
same,Normalized FL intensity,"0 min, single samples",0.9783 and 1.039 and 1.048
same,Normalized FL intensity,"2 min, mean of 3 samples",1.026
same,Normalized FL intensity,"2 min, single samples",0.9783 and 1.057 and 1.043
same,Normalized FL intensity,"4 min, mean of 3 samples",1.02
same,Normalized FL intensity,"4 min, single samples",1.0087 and 1.035 and 1.017
same,Normalized FL intensity,"6 min, mean of 3 samples",1.039
same,Normalized FL intensity,"6 min, single samples",1.087 and 1.03 and 1
same,Normalized FL intensity,"8 min, mean of 3 samples",1.032
same,Normalized FL intensity,"8 min, single samples",1.087 and 1.013 and 0.9957
same,Normalized FL intensity,"10 min, mean of 3 samples",1.035
same,Normalized FL intensity,"10 min, single samples",1.083 and 1.017 and 1.004
same,Normalized FL intensity,"12 min, mean of 3 samples",1.029
same,Normalized FL intensity,"12 min, single samples",1.083 and 1.004 and 1
same,Normalized FL intensity,"14 min, mean of 3 samples",1.014
same,Normalized FL intensity,"14 min, single samples",1.065 and 0.9957 and 0.9826
same,Normalized FL intensity,"16 min, mean of 3 samples",1.013
same,Normalized FL intensity,"16 min, single samples",1.057 and 0.9957 and 0.987
same,Normalized FL intensity,"18 min, mean of 3 samples",1.0087
same,Normalized FL intensity,"18 min, single samples",1.048 and 1 and 0.9783
same,Normalized FL intensity,"20 min, mean of 3 samples",1.016
same,Normalized FL intensity,"20 min, single samples",1.039 and 0.9913 and 1.017
same,Normalized FL intensity,"22 min, mean of 3 samples",1.023
same,Normalized FL intensity,"22 min, single samples",1.104 and 0.9913 and 0.9739
same,Normalized FL intensity,"24 min, mean of 3 samples",1
same,Normalized FL intensity,"24 min, single samples",1.039 and 0.9957 and 0.9652
same,Normalized FL intensity,"26 min, mean of 3 samples",1.0029
same,Normalized FL intensity,"26 min, single samples",1.035 and 1.004 and 0.9696
same,Normalized FL intensity,"28 min, mean of 3 samples",1.014
same,Normalized FL intensity,"28 min, single samples",1.026 and 0.9913
same,Normalized FL intensity,"30 min, mean of 3 samples",1.00E+00
same,Normalized FL intensity,"30 min, single samples",1.04E+00 and 9.91E-01 and 0.9783
same,"normalized signal over time (section 'Supplementary Fig. 2c'), mean of 3",time 200 min,0.9941
same,"normalized signal over time (section 'Supplementary Fig. 2c'), mean of 3",time 220 min,0.9946
same,"normalized signal over time (section 'Supplementary Fig. 2c'), mean of 3",time 240 min,0.9956
same,"normalized signal over time (section 'Supplementary Fig. 2c'), mean of 3",time 300 min,0.9969
same,"normalized signal over time (section 'Supplementary Fig. 2c'), mean of 3",time 340 min,0.9978
same,"normalized signal over time (section 'Supplementary Fig. 2c'), mean of 3",time 360 min,0.9982
same,"normalized signal over time (section 'Supplementary Fig. 2c'), mean of 3",time 380 min,0.998
same,"normalized signal over time (section 'Supplementary Fig. 2c'), mean of 3",time 400 min,0.9983
same,"normalized signal over time (section 'Supplementary Fig. 2c'), mean of 3",time 420 min,0.9984
same,"normalized signal over time (section 'Supplementary Fig. 2c'), mean of 3",time 460 min,0.9985
same,"normalized signal over time (section 'Supplementary Fig. 2c'), mean of 3",time 480 min,0.9989
same,"normalized signal over time (section 'Supplementary Fig. 2c'), mean of 3",time 500 min,0.9986
same,"normalized signal over time (section 'Supplementary Fig. 2c'), mean of 3",time 520 min,0.9984
same,"normalized signal over time (section 'Supplementary Fig. 2c'), mean of 3",time 540 min,0.9984
same,"normalized signal over time (section 'Supplementary Fig. 2c'), mean of 3",time 560 min,0.9984
same,"normalized signal over time (section 'Supplementary Fig. 2c'), mean of 3",time 580 min,0.9984
same,"normalized signal over time (section 'Supplementary Fig. 2c'), mean of 3",time 600 min,0.9984
